# Results published in patent US12042564B2, “Therapeutic solid dosage forms” (CYBIN UK LTD, priority 2020, dated 2024).
# Several values for one entry are separate records, joined by “and”; a condition that tells them apart may be missing. Identical values can stand only once.
# Legend:
# [1] = Intrinsic clearance and half-life in human liver mitochondrial fraction; type: in vitro ADME; conditions: 0.5 mg/mL human liver mitochondrial fraction; 1 μM test compounds, 5 μM controls; mean of replicates
# From the text: (§1) Use of Liver Mitochondrial Fraction to Model Human Metabolism of Deuterated DMT
# [2] = tested on: human liver mitochondrial fraction; experiment: as above; type: in vitro ADME; conditions: 0.5 mg/mL human liver mitochondrial fraction, 1 μM test compounds; for Half-life (min) R1: 5 μM Serotonin and Benzylamine controls, replicate 1; for Half-life (min) R3: replicate 3; for Half-life (min) R4: replicate 4
# From the text: as §1
# [3] = Initial solubility test of DMT fumarate in aqueous vehicles; type: physicochemical
# Protocol: Solubility of DMT fumarate was assessed at a concentration of 10 mg/ml in a small selection of aqueous vehicles (water, saline, 20 mM phosphate buffer and a combination of buffer and saline).
# Phosphate buffer (100 ml) was prepared using 219.53 mg of the dibasic form [HPO4][Na]2 with 183.7 mg of the monobasic form [H2PO4]Na, both dihydrate salts. The solution was adjusted to pH 7.0 with addition of NaOH (1 M) and then made to volume. 10 ml of a 10 mg/ml formulation was prepared.
# To prepare this, sodium chloride was first dissolved in water to produce the saline solution (100 ml, 0.45% w/v). The phosphate salts, in the quantities described above, were then dissolved in the saline solution and the pH was adjusted using NaOH (1 M).
# The pH of these solutions was in the range 3-4.
# [4] = cited from earlier work
# [5] = Plasma IAA metabolite levels after oral dosing in rats; conditions: for Estimated IAA Concentration / Estimated IAA Concentration, Mean: rat plasma, PO Dose (25 mg/kg); for Estimated IAA Concentration: individual animal; for Estimated IAA Concentration, Mean: mean of animals
# [6] = Plasma pharmacokinetics of test compound after oral dosing in rats; conditions: rat plasma; for Determined Concentration of test compound in plasma / Determined Concentration of test compound in plasma, Mean: oral dosing; for Determined Concentration of test compound in plasma: individual animal; for Determined Concentration of test compound in plasma, Mean: mean of 3 animals
# [7] = Solubility of DMT fumarate at different pH values in Britton-Robinson buffer; conditions: before pH adjustment
compound,measurement,setting,value
"NCc1ccccc1 [Benzylamine, reference compound]",half-life at 5 μM,[1],22.8 min
same,Half-life (min) R1,[2],24.3 min
same,Half-life (min) R3,[2]; 5 μM controls,21.2 min
same,Half-life (min) R4,[2]; 5 μM controls,23.5 min
"CN(C)CCc1c[nH]c2ccccc12.O=C(O)/C=C/C(=O)O [SPL026, N,N-dimethyltryptamine (DMT) fumarate salt]",Half-life (min) R1,[2],8.8 min
same,Half-life (min) Mean,"[2]; 5 μM controls, mean of replicates",8.3 min
same,Half-life (min) R3,[2]; 5 μM controls,7.6 min
same,Half-life (min) R4,[2]; 5 μM controls,8.3 min
same,pH of these solutions,[3]; 10 mg/ml in aqueous vehicles,3-4
same,Solubility at a concentration of 10 mg/ml in aqueous vehicles,"[3]; water, saline, 20 mM phosphate buffer, buffer and saline",readily soluble
same,predicted half-life in humans,[4]; humans,5 min
same,duration of action,[4]; psychedelic effect,under 20 minutes
same,Mean IAA Cmax,[5]; rat plasma IAA (semi quantified) after 25 mg/kg PO of the compound,9.204 ng/mL
same,Mean IAA tmax,[5]; rat plasma IAA after 25 mg/kg PO of the compound,30 min
same,Estimated IAA Concentration,[5]; 1 min,BLQ
same,"Estimated IAA Concentration, Mean",[5]; 1 min,BLQ
same,Estimated IAA Concentration,"[5]; 5 min, fumarate salt, 25 mg/kg",0.549 ng/mL and 1.33 ng/mL and 1.64 ng/mL
same,"Estimated IAA Concentration, Mean",[5]; 5 min,1.171 ng/mL
same,Estimated IAA Concentration,"[5]; 10 min, fumarate salt, 25 mg/kg",1.08 ng/mL and 2.58 ng/mL and 4.39 ng/mL
same,"Estimated IAA Concentration, Mean",[5]; 10 min,2.683 ng/mL
same,Estimated IAA Concentration,"[5]; 15 min, fumarate salt, 25 mg/kg",1.82 ng/mL and 5.55 ng/mL and 6.09 ng/mL
same,"Estimated IAA Concentration, Mean",[5]; 15 min,4.487 ng/mL
same,Estimated IAA Concentration,"[5]; 30 min, fumarate salt, 25 mg/kg",7.08 ng/mL and 11.8 ng/mL and 8.88 ng/mL
same,"Estimated IAA Concentration, Mean",[5]; 30 min,9.245 ng/mL
same,Estimated IAA Concentration,"[5]; 45 min, fumarate salt, 25 mg/kg",5.10 ng/mL and 6.44 ng/mL and 9.98 ng/mL
same,"Estimated IAA Concentration, Mean",[5]; 45 min,7.174 ng/mL
same,Estimated IAA Concentration,"[5]; 60 min, fumarate salt, 25 mg/kg",6.18 ng/mL and 9.74 ng/mL and 11.7 ng/mL
same,"Estimated IAA Concentration, Mean",[5]; 60 min,9.204 ng/mL
same,Estimated IAA Concentration,"[5]; 120 min, fumarate salt, 25 mg/kg",7.40 ng/mL and 7.70 ng/mL and 8.67 ng/mL
same,"Estimated IAA Concentration, Mean",[5]; 120 min,7.924 ng/mL
same,Estimated IAA Concentration,"[5]; 180 min, fumarate salt, 25 mg/kg",4.34 ng/mL and 2.53 ng/mL and 3.08 ng/mL
same,"Estimated IAA Concentration, Mean",[5]; 180 min,3.316 ng/mL
same,Estimated IAA Concentration,[5]; Predose,BLQ
same,"Estimated IAA Concentration, Mean",[5]; Predose,BLQ
same,mean Cmax,[6]; 25 mg/kg single oral gavage,27.9 ng/mL
same,Determined Concentration of test compound in plasma,"[6]; 1 min, fumarate salt",BLQ (Below the lower limit of quantification 0.310 ng/mL) (2×) and 0.391 ng/mL
same,"Determined Concentration of test compound in plasma, Mean",[6]; 1 min,<0.3 ng/mL
same,Determined Concentration of test compound in plasma,"[6]; 5 min, fumarate salt",BLQ (Below the lower limit of quantification 0.310 ng/mL) (2×) and 0.590 ng/mL
same,"Determined Concentration of test compound in plasma, Mean",[6]; 5 min,<0.4 ng/mL
same,Determined Concentration of test compound in plasma,"[6]; 10 min, fumarate salt",BLQ (Below the lower limit of quantification 0.310 ng/mL) and 4.06 ng/mL and 20.7 ng/mL
same,"Determined Concentration of test compound in plasma, Mean",[6]; 10 min,<8.4 ng/mL
same,Determined Concentration of test compound in plasma,"[6]; 15 min, fumarate salt",0.763 ng/mL and 19.9 ng/mL and 25.7 ng/mL
same,"Determined Concentration of test compound in plasma, Mean",[6]; 15 min,15.5 ng/mL
same,Determined Concentration of test compound in plasma,"[6]; 30 min, fumarate salt",7.77 ng/mL and 25.2 ng/mL and 29.5 ng/mL
same,"Determined Concentration of test compound in plasma, Mean",[6]; 30 min,20.8 ng/mL
same,Determined Concentration of test compound in plasma,"[6]; 45 min, fumarate salt",18.0 ng/mL and 18.5 ng/mL and 28.6 ng/mL
same,"Determined Concentration of test compound in plasma, Mean",[6]; 45 min,21.7 ng/mL
same,Determined Concentration of test compound in plasma,"[6]; 60 min, fumarate salt",16.9 ng/mL and 31.6 ng/mL and 34.1 ng/mL
same,"Determined Concentration of test compound in plasma, Mean",[6]; 60 min,27.5 ng/mL
same,Determined Concentration of test compound in plasma,"[6]; 120 min, fumarate salt",13.7 ng/mL and 11.7 ng/mL and 16.9 ng/mL
same,"Determined Concentration of test compound in plasma, Mean",[6]; 120 min,14.1 ng/mL
same,Determined Concentration of test compound in plasma,"[6]; 180 min, fumarate salt",5.83 ng/mL and 2.57 ng/mL and 2.45 ng/mL
same,"Determined Concentration of test compound in plasma, Mean",[6]; 180 min,3.6 ng/mL
same,Determined Concentration of test compound in plasma,[6]; Predose,BLQ (Below the lower limit of quantification 0.310 ng/mL)
same,"Determined Concentration of test compound in plasma, Mean",[6]; Predose,BLQ (Below the lower limit of quantification 0.310 ng/mL)
same,dissolution at 20 mg/ml in Britton-Robinson buffer solution,[7],very soluble
